# Experiment: Stability of Form C (Tables 5A-5F)
# Format: physicochemical
smiles,measurement,setting,value
"Cc1nc(-c2c[nH]c3c(C#N)cccc23)cnc1OCC(C)(C)O [Form C, 3-(5-(2-hydroxy-2-methylpropoxy)-6-methylpyrazin-2-yl)-1H-indole-7-carbonitrile]","Impurities, HPLC: A","25° C./60% RH, 01 Month",<0.05 area %
same,"Impurities, HPLC: B","25° C./60% RH, 01 Month",<0.05 area %
same,"Impurities, HPLC: C","25° C./60% RH, 01 Month",<0.05 area %
same,"Impurities, HPLC: D","25° C./60% RH, 01 Month",<0.05 area %
same,"Impurities, HPLC: RRT 1.07","25° C./60% RH, 01 Month",0.71 area %
same,"Impurities, HPLC: SM1","25° C./60% RH, 01 Month",<0.05 area %
same,"Impurities, HPLC: SM2","25° C./60% RH, 01 Month",<0.05 area %
same,"Impurities, HPLC: Unidentified impurity","25° C./60% RH, 01 Month",<0.05 area %
same,"Purity, HPLC","25° C./60% RH, 01 Month",99.3 area %
same,Water content,"25° C./60% RH, 01 Month",<0.05 wt %
same,"Impurities, HPLC: A","25° C./60% RH, 03 Month",<0.05 area %
same,"Impurities, HPLC: B","25° C./60% RH, 03 Month",<0.05 area %
same,"Impurities, HPLC: C","25° C./60% RH, 03 Month",<0.05 area %
same,"Impurities, HPLC: D","25° C./60% RH, 03 Month",<0.05 area %
same,"Impurities, HPLC: RRT 1.07","25° C./60% RH, 03 Month",0.77 area %
same,"Impurities, HPLC: SM1","25° C./60% RH, 03 Month",<0.05 area %
same,"Impurities, HPLC: SM2","25° C./60% RH, 03 Month",<0.05 area %
same,"Impurities, HPLC: Unidentified impurity","25° C./60% RH, 03 Month",<0.05 area %
same,"Purity, HPLC","25° C./60% RH, 03 Month",99.2 area %
same,Water content,"25° C./60% RH, 03 Month",<0.05 wt %
same,"Impurities, HPLC: A","25° C./60% RH, 06 Month",<0.05 area %
same,"Impurities, HPLC: B","25° C./60% RH, 06 Month",<0.05 area %
same,"Impurities, HPLC: C","25° C./60% RH, 06 Month",<0.05 area %
same,"Impurities, HPLC: D","25° C./60% RH, 06 Month",<0.05 area %
same,"Impurities, HPLC: RRT 1.07","25° C./60% RH, 06 Month",0.73 area %
same,"Impurities, HPLC: SM1","25° C./60% RH, 06 Month",<0.05 area %
same,"Impurities, HPLC: SM2","25° C./60% RH, 06 Month",<0.05 area %
same,"Impurities, HPLC: Unidentified impurity","25° C./60% RH, 06 Month",<0.05 area %
same,"Purity, HPLC","25° C./60% RH, 06 Month",99.3 area %
same,Water content,"25° C./60% RH, 06 Month",<0.05 wt %
same,"Assay, HPLC","25° C./60% RH, 09 Month",99.4 wt %
same,"Impurities, HPLC: A","25° C./60% RH, 09 Month",<0.05 area %
same,"Impurities, HPLC: B","25° C./60% RH, 09 Month",<0.05 area %
same,"Impurities, HPLC: C","25° C./60% RH, 09 Month",<0.05 area %
same,"Impurities, HPLC: D","25° C./60% RH, 09 Month",<0.05 area %
same,"Impurities, HPLC: RRT 1.07","25° C./60% RH, 09 Month",0.72 area %
same,"Impurities, HPLC: SM1","25° C./60% RH, 09 Month",<0.05 area %
same,"Impurities, HPLC: SM2","25° C./60% RH, 09 Month",<0.05 area %
same,"Impurities, HPLC: Unidentified impurity","25° C./60% RH, 09 Month",<0.05 area %
same,"Purity, HPLC","25° C./60% RH, 09 Month",99.3 area %
same,Water content,"25° C./60% RH, 09 Month",<0.05 wt %
same,"Assay, HPLC","25° C./60% RH, 12 Month",99.4 wt %
same,"Impurities, HPLC: A","25° C./60% RH, 12 Month",<0.05 area %
same,"Impurities, HPLC: B","25° C./60% RH, 12 Month",<0.05 area %
same,"Impurities, HPLC: C","25° C./60% RH, 12 Month",<0.05 area %
same,"Impurities, HPLC: D","25° C./60% RH, 12 Month",<0.05 area %
same,"Impurities, HPLC: RRT 1.07","25° C./60% RH, 12 Month",0.74 area %
same,"Impurities, HPLC: SM1","25° C./60% RH, 12 Month",<0.05 area %
same,"Impurities, HPLC: SM2","25° C./60% RH, 12 Month",<0.05 area %
same,"Impurities, HPLC: Unidentified impurity","25° C./60% RH, 12 Month",<0.05 area %
same,"Purity, HPLC","25° C./60% RH, 12 Month",99.3 area %
same,Water content,"25° C./60% RH, 12 Month",<0.05 wt %
same,"Impurities, HPLC: A","25° C./60% RH, Initial",<0.05 area %
same,"Impurities, HPLC: B","25° C./60% RH, Initial",<0.05 area %
same,"Impurities, HPLC: C","25° C./60% RH, Initial",<0.05 area %
same,"Impurities, HPLC: D","25° C./60% RH, Initial",<0.05 area %
same,"Impurities, HPLC: RRT 1.07","25° C./60% RH, Initial",0.77 area %
same,"Impurities, HPLC: SM1","25° C./60% RH, Initial",<0.05 area %
same,"Impurities, HPLC: SM2","25° C./60% RH, Initial",<0.05 area %
same,"Impurities, HPLC: Unidentified impurity","25° C./60% RH, Initial",<0.05 area %
same,"Purity, HPLC","25° C./60% RH, Initial",99.2 area %
same,Water content,"25° C./60% RH, Initial",<0.05 wt %
same,"Assay, HPLC","40° C./75% RH, 01 Month",99.7 wt %
same,"Impurities, HPLC: A","40° C./75% RH, 01 Month",<0.05 area %
same,"Impurities, HPLC: B","40° C./75% RH, 01 Month",<0.05 area %
same,"Impurities, HPLC: C","40° C./75% RH, 01 Month",<0.05 area %
same,"Impurities, HPLC: D","40° C./75% RH, 01 Month",<0.05 area %
same,"Impurities, HPLC: RRT 1.07","40° C./75% RH, 01 Month",0.70 area %
same,"Impurities, HPLC: SM1","40° C./75% RH, 01 Month",<0.05 area %
same,"Impurities, HPLC: SM2","40° C./75% RH, 01 Month",<0.05 area %
same,"Impurities, HPLC: Unidentified impurity","40° C./75% RH, 01 Month",<0.05 area %
same,"Purity, HPLC","40° C./75% RH, 01 Month",99.3 area %
same,Water content,"40° C./75% RH, 01 Month",<0.05 wt %
same,"Assay, HPLC","40° C./75% RH, 03 Month",98.7 wt %
same,"Impurities, HPLC: A","40° C./75% RH, 03 Month",<0.05 area %
same,"Impurities, HPLC: B","40° C./75% RH, 03 Month",<0.05 area %
same,"Impurities, HPLC: C","40° C./75% RH, 03 Month",<0.05 area %
same,"Impurities, HPLC: D","40° C./75% RH, 03 Month",<0.05 area %
same,"Impurities, HPLC: RRT 1.07","40° C./75% RH, 03 Month",0.77 area %
same,"Impurities, HPLC: SM1","40° C./75% RH, 03 Month",<0.05 area %
same,"Impurities, HPLC: SM2","40° C./75% RH, 03 Month",<0.05 area %
same,"Impurities, HPLC: Unidentified impurity","40° C./75% RH, 03 Month",<0.05 area %
same,"Purity, HPLC","40° C./75% RH, 03 Month",99.2 area %
same,Water content,"40° C./75% RH, 03 Month",<0.05 wt %
same,"Assay, HPLC","40° C./75% RH, 06 Month",99.1 wt %
same,"Impurities, HPLC: A","40° C./75% RH, 06 Month",<0.05 area %
same,"Impurities, HPLC: B","40° C./75% RH, 06 Month",<0.05 area %
same,"Impurities, HPLC: C","40° C./75% RH, 06 Month",<0.05 area %
same,"Impurities, HPLC: D","40° C./75% RH, 06 Month",<0.05 area %
same,"Impurities, HPLC: RRT 1.07","40° C./75% RH, 06 Month",0.73 area %
same,"Impurities, HPLC: SM1","40° C./75% RH, 06 Month",<0.05 area %
same,"Impurities, HPLC: SM2","40° C./75% RH, 06 Month",<0.05 area %
same,"Impurities, HPLC: Unidentified impurity","40° C./75% RH, 06 Month",<0.05 area %
same,"Purity, HPLC","40° C./75% RH, 06 Month",99.3 area %
same,Water content,"40° C./75% RH, 06 Month",<0.05 wt %
same,"Assay, HPLC","40° C./75% RH, Initial",99.4 wt %
same,"Impurities, HPLC: A","40° C./75% RH, Initial",<0.05 area %
same,"Impurities, HPLC: B","40° C./75% RH, Initial",<0.05 area %
same,"Impurities, HPLC: C","40° C./75% RH, Initial",<0.05 area %
same,"Impurities, HPLC: D","40° C./75% RH, Initial",<0.05 area %
same,"Impurities, HPLC: RRT 1.07","40° C./75% RH, Initial",0.77 area %
same,"Impurities, HPLC: SM1","40° C./75% RH, Initial",<0.05 area %
same,"Impurities, HPLC: SM2","40° C./75% RH, Initial",<0.05 area %
same,"Impurities, HPLC: Unidentified impurity","40° C./75% RH, Initial",<0.05 area %
same,"Purity, HPLC","40° C./75% RH, Initial",99.2 area %
same,Water content,"40° C./75% RH, Initial",<0.05 wt %
same,Stability,conditions where the temperature and relative humidity are altered,stable
